Patent EP1561465A2, “Methods of use of fluoroquinolone compounds against bacteria” (LG Life Sciences, Ltd., priority 1999, dated 2001)
≈ marks a conversion by molar mass, not a printed value. Like-named read-outs stand apart in the source and are kept apart here.

Legend:
[1] = tested on: Campylobacter jejuni; test: MIC by agar dilution (NCCLS M7-A4), 288 enteropathogenic isolates, gemifloxacin and 15 other antimicrobials; conditions: for MIC: Campylobacter jejuni
[2] = tested on: Salmonella spp.; test: as above; format: cell-based; conditions: for MIC: Salmonella
[3] = tested on: Aeromonas spp.; test: as above; format: cell-based; conditions: for MIC: Aeromonas
[4] = tested on: Yersinia enterocolitica; test: as above; format: cell-based
[5] = tested on: Shigella spp.; test: as above; format: cell-based; conditions: Shigella spp. N= 21
Procedure, shortened: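 Agar dilution with ~10^4 cfu/spot inoculum; plates incubated aerobically at 35 °C for 24 h, except C. jejuni, held microaerophilically for 48 h. MIC taken as lowest antibiotic concentration with no visible growth.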

[6] = tested on: Campylobacter jejuni; conditions: Campylobacter jejuni N= 91
[7] = tested on: Hafnia alvei; test: MIC by agar dilution (NCCLS M7-A4), 288 enteropathogenic isolates, gemifloxacin and 15 other antimicrobials; format: cell-based; conditions: for MIC: Hafnia alvei
[8] = tested on: E. coli; test: microbe, parasite or virus in culture; format: cell-based; conditions: Escherichia coli
[9] = tested on: Moraxella catarrhalis; test: MIC by two-fold serial agar dilution, Sensitivity Disk agar-N (Kitasato isolates); format: cell-based; conditions: Moraxella catarrhalis (22)
[10] = tested on: Klebsiella pneumoniae; test: MIC by agar dilution (NCCLS), 322 nosocomial Gram negative isolates, Athens 1998; format: cell-based; conditions: n = 56 isolates
[11] = tested on: Streptococcus pyogenes; test: MIC by NCCLS reference broth microdilution, 450 respiratory tract pathogens; format: cell-based; conditions: Streptococcus pyogenes
[12] = tested on: Haemophilus influenzae; test: MIC by two-fold serial agar dilution, Sensitivity Disk agar-N (Kitasato isolates); format: cell-based; conditions: Haemophilus influenzae (24)
[13] = tested on: Klebsiella pneumoniae; test: MIC by NCCLS reference broth microdilution, 450 respiratory tract pathogens; format: cell-based
[14] = tested on: Acinetobacter spp.; test: MIC by agar dilution (NCCLS), 322 nosocomial Gram negative isolates, Athens 1998; format: cell-based; conditions: Acinetobacter; n = 38 strains
[15] = tested on: Streptococcus pneumoniae; test: MIC by two-fold serial agar dilution, Sensitivity Disk agar-N (Kitasato isolates); format: cell-based; conditions: Streptococcus pneumoniae; for MIC: 18 h, read-out: MIC Range
[16] = tested on: Proteus mirabilis; test: MIC by agar dilution (NCCLS), 322 nosocomial Gram negative isolates, Athens 1998; format: cell-based; conditions: Proteus mirabilis; n = 57 isolates
[17] = tested on: Moraxella catarrhalis; test: MIC by NCCLS reference broth microdilution, 450 respiratory tract pathogens; format: cell-based
[18] = tested on: Pseudomonas aeruginosa; test: MIC by agar dilution (NCCLS), 322 nosocomial Gram negative isolates, Athens 1998; format: cell-based; conditions: n = 57 isolates
[19] = tested on: Haemophilus influenzae; test: MIC by NCCLS reference broth microdilution, 450 respiratory tract pathogens; format: cell-based; conditions: for MIC / MIC50: Haemophilus influenzae
[20] = tested on: Escherichia coli; test: MIC by agar dilution (NCCLS), 322 nosocomial Gram negative isolates, Athens 1998; format: cell-based; conditions: n = 57 isolates
[21] = tested on: Streptococcus pneumoniae; test: MIC by NCCLS reference broth microdilution, 450 respiratory tract pathogens; format: cell-based; conditions: Streptococcus pneumoniae
[22] = tested on: Enterobacter spp.; test: MIC by agar dilution (NCCLS), 322 nosocomial Gram negative isolates, Athens 1998; format: cell-based; conditions: Enterobacter; n = 57 isolates; read-out: MIC50
[23] = tested on: P. aeruginosa; test: MIC by two-fold serial agar dilution, quinolone-resistant strains; format: cell-based; conditions: Pseudomonas aeruginosa
[24] = tested on: Staphylococcus aureus; test: MIC by NCCLS reference broth microdilution, 450 respiratory tract pathogens; format: cell-based
[25] = Streptococcus pyogenes (n = 100)
[26] = erythromycin resistant I phenotype [MLSB] (n = 20)
[27] = erythromycin resistant M phenotype (n = 20)
[28] = Klebsiella pneumoniae, Klebsiella pneumoniae (n = 50)
[29] = Haemophilus influenzae (n = 100)

CO/N=C1\CN(c2nc3c(cc2F)c(=O)c(C(=O)O)cn3C2CC2)CC1CN (racemic) [Gemifloxacin (SB 265805)]
MIC ([1]; read-out: MIC (mg/L) 50%): 32 mg/L (≈ 82.2 µM) | MIC ([1]; read-out: MIC (mg/L) 90%): 128 mg/L (≈ 329 µM) | % Susceptible ([2]; Salmonella spp. N= 106): 100% | MIC (mg/L) Range ([2]; Salmonella spp. N= 106): ≤0.015 to 0.25 mg/L | MIC ([2]; read-out: MIC (mg/L) 50%, Salmonella spp. N= 106): 0.03 mg/L (≈ 0.077 µM) | MIC ([2]; read-out: MIC (mg/L) 90%, Salmonella spp. N= 106): 0.12 mg/L (≈ 0.308 µM) | % Susceptible ([3]; Aeromonas spp. N= 16): 100% | MIC ([3]; read-out: MIC (mg/L) 50%): ≤ 0.015 mg/L | MIC ([3]; read-out: MIC (mg/L) 90%): 0.03 mg/L (≈ 0.077 µM) | % Susceptible ([4]; Yersinia enterocolitica N= 22): 100% | MIC (mg/L) Range ([4]; Yersinia enterocolitica N= 22): ≤0.015 to 0.12 mg/L | MIC ([4]; Yersinia enterocolitica, read-out: MIC (mg/L) 50%): 0.03 mg/L (≈ 0.077 µM) | MIC ([4]; Yersinia enterocolitica, read-out: MIC (mg/L) 90%): 0.03 mg/L (≈ 0.077 µM) | % Susceptible [5]: 100% | MIC (mg/L) Range [5]: ≤0.015 mg/L | MIC ([5]; read-out: MIC (mg/L) 50%): ≤ 0.015 mg/L | MIC ([5]; read-out: MIC (mg/L) 90%): ≤ 0.015 mg/L | % Susceptible [6]: 32% | MIC (mg/L) Range [6]: 0.03 to 128 mg/L | % Susceptible ([7]; Hafnia alvei N= 32): 100% | MIC ([7]; read-out: MIC (mg/L) 50%): 0.03 mg/L (≈ 0.077 µM) | MIC ([7]; read-out: MIC (mg/L) 90%): 0.03 mg/L (≈ 0.077 µM)

O=C(O)c1cn(C2CC2)c2cc(N3CCNCC3)c(F)cc2c1=O [Ciprofloxacin, ciprofloxacin]
MIC (mg/L) Range ([1]; Campylobacter jejuni N= 91): 0.06 to 128 mg/L | MIC ([8]; E. coli KU1030, mutant type SP): 0.063 µg/mL (≈ 0.19 µM) | MIC ([8]; E. coli KU1036, mutant type GB (DNA gyrase B)): 0.063 µg/mL (≈ 0.19 µM) | MIC ([8]; E. coli KU1038, mutant type SP): 0.063 µg/mL (≈ 0.19 µM) | MIC ([8]; E. coli KU1042, mutant type SP): 0.063 µg/mL (≈ 0.19 µM) | MIC50 [9]: 0.031 µg/mL (≈ 0.0936 µM) | MIC Range [9]: 0.031 to 0.063 µg/mL | MIC (mg/L) Range ([2]; Salmonella spp. N= 106): ≤0.015 to 1 mg/L | MIC50 ([10]; Klebsiella pneumoniae): ≤ 0.03 µg/mL | MIC90 ([10]; Klebsiella pneumoniae): 0.5 µg/mL (≈ 1.51 µM) | MIC Range [10]: ≤0.03 to 8 µg/mL | MIC [11, 25]: 0.12 to 2 µg/mL (≈ 0.362 to 6.04 µM) | MIC90 [11, 25]: 0.5 µg/mL (≈ 1.51 µM) | MIC ([11]; erythromycin resistant C phenotype [MLSB] (n = 20)): 0.25 to 0.5 µg/mL (≈ 0.754 to 1.51 µM) | MIC [11, 26]: 0.12 to 2 µg/mL (≈ 0.362 to 6.04 µM) | MIC90 [11, 26]: 0.5 µg/mL (≈ 1.51 µM) | MIC [11, 27]: 0.12 to 0.5 µg/mL (≈ 0.362 to 1.51 µM) | MIC90 [11, 27]: 0.5 µg/mL (≈ 1.51 µM) | MIC ([11]; fully susceptible (n = 20)): 0.12 to 2 µg/mL (≈ 0.362 to 6.04 µM) | MIC90 ([11]; fully susceptible (n = 20)): 0.5 µg/mL (≈ 1.51 µM) | MIC ([11]; multi-drug resistant (n = 20)): 0.25 to 1 µg/mL (≈ 0.754 to 3.02 µM) | MIC90 ([11]; multi-drug resistant (n = 20)): 0.5 µg/mL (≈ 1.51 µM) | MIC (mg/L) Range ([3]; Aeromonas spp. N= 16): ≤0.015 to 0.06 mg/L | MIC Range [12]: 0.008 to 0.031 µg/mL | MIC Range ([13]; Klebsiella pneumoniae (n = 50)): ≤0.0075 to 1 µg/mL | MIC50 [13, 28]: 0.12 µg/mL (≈ 0.362 µM) | MIC90 [13, 28]: 0.5 µg/mL (≈ 1.51 µM) | MIC90 ([13]; Klebsiella pneumoniae, extended spectrum β-lactamase negative (n = 30)): 0.03 µg/mL (≈ 0.0905 µM) | MIC90 ([13]; Klebsiella pneumoniae, extended spectrum β-lactamase positive (n = 20)): 0.5 µg/mL (≈ 1.51 µM) | MIC Range ([13]; extended spectrum β-lactamase negative (n = 30)): ≤0.0075 to 0.12 µg/mL | MIC Range ([13]; extended spectrum β-lactamase positive (n = 20)): 0.015 to 0.5 µg/mL | MIC90 [14]: > 64 µg/mL | MIC ([4]; 24 h, Yersinia enterocolitica N= 22, read-out: MIC (mg/L) Range): 0.015 to 0.25 mg/L (≈ 0.0453 to 0.754 µM) | MIC ([15]; Ciprofloxacin-resistant (21)): 8 to 128 µg/mL (≈ 24.1 to 386 µM) | MIC ([15]; Ciprofloxacin-susceptible (94)): 0.25 to 4 µg/mL (≈ 0.754 to 12.1 µM) | MIC ([15]; Erythromycin-resistant (37)): 0.5 to 64 µg/mL (≈ 1.51 to 193 µM) | MIC ([15]; Minocycline-resistant (37)): 0.25 to 64 µg/mL (≈ 0.754 to 193 µM) | MIC ([15]; Penicillin-resistant (19)): 0.5 to 8 µg/mL (≈ 1.51 to 24.1 µM) | MIC50 ([15]; Penicillin-resistant (19), read-out: MIC50): 0.5 µg/mL (≈ 1.51 µM) | MIC50 [16]: 0.06 µg/mL (≈ 0.181 µM) | MIC ([17]; Moraxella catarrhalis (n = 50)): 0.00375 to 0.06 µg/mL (≈ 0.0113 to 0.181 µM) | MIC50 ([17]; Moraxella catarrhalis (n = 50)): 0.03 µg/mL (≈ 0.0905 µM) | MIC ([17]; β-lactamase negative (n = 13)): 0.00375 to 0.03 µg/mL (≈ 0.0113 to 0.0905 µM) | MIC50 ([17]; β-lactamase negative (n = 13)): 0.015 µg/mL (≈ 0.0453 µM) | MIC ([17]; β-lactamase positive (n = 37)): 0.00375 to 0.06 µg/mL (≈ 0.0113 to 0.181 µM) | MIC50 ([17]; β-lactamase positive (n = 37)): 0.03 µg/mL (≈ 0.0905 µM) | MIC50 [18]: 0.5 µg/mL (≈ 1.51 µM) | MIC90 [19, 29]: 0.015 µg/mL (≈ 0.0453 µM) | MIC [19, 29]: 0.0075 to 0.5 µg/mL (≈ 0.0226 to 1.51 µM) | MIC50 [19, 29]: ≤ 0.00075 µg/mL | MIC ([19]; β-lactamase negative (n = 80)): 0.0075 to 0.5 µg/mL (≈ 0.0226 to 1.51 µM) | MIC50 ([19]; β-lactamase negative (n = 80)): ≤ 0.0075 µg/mL | MIC ([19]; β-lactamase positive (n = 20)): 0.0075 to 0.015 µg/mL (≈ 0.0226 to 0.0453 µM) | MIC50 ([19]; β-lactamase positive (n = 20)): ≤ 0.0075 µg/mL | MIC50 ([20]; Escherichia coli): ≤ 0.03 µg/mL | MIC Range [20]: ≤0.03 to 64 µg/mL | MIC ([21]; Streptococcus pneumoniae (n = 100)): 0.06 to 4 µg/mL (≈ 0.181 to 12.1 µM) | MIC ([21]; multi-drug resistant (n = 16)): 0.5 to 4 µg/mL (≈ 1.51 to 12.1 µM) | MIC ([21]; penicillin intermediate (n = 16)): 0.5 to 2 µg/mL (≈ 1.51 to 6.04 µM) | MIC ([21]; penicillin resistant (n = 18)): 0.5 to 8 µg/mL (≈ 1.51 to 24.1 µM) | MIC50 ([21]; penicillin resistant (n = 18)): 0.5 µg/mL (≈ 1.51 µM) | MIC90 ([21]; penicillin resistant (n = 18)): 8 µg/mL (≈ 24.1 µM) | MIC ([21]; penicillin susceptible (n = 20)): 0.06 to 2 µg/mL (≈ 0.181 to 6.04 µM) | MIC50 [22]: ≤ 0.03 µg/mL | MIC [23]: 1 µg/mL (≈ 3.02 µM) | MIC ([24]; Staphylococcus aureus (n = 50)): 0.06 to 4 µg/mL (≈ 0.181 to 12.1 µM) | MIC50 ([24]; Staphylococcus aureus (n = 50)): 2 µg/mL (≈ 6.04 µM) | MIC ([24]; β-lactamase negative (n = 20)): 0.06 to 4 µg/mL (≈ 0.181 to 12.1 µM) | MIC50 ([24]; β-lactamase negative (n = 20)): 2 µg/mL (≈ 6.04 µM)
